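Interpolation was linear, between the two tested concentrations surrounding the appropriate level; five concentrations were tested over 48 hours in 96-well plates. TGI is the concentration that stops growth completely.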

The subject of the first test is UO-31 renal. In words: growth of human tumour cells (NCI), 48 h.
Consider `COc1cc(OC)c(OC)cc1/C=C/c1nc2ccccc2s1`, for which the TGI was > 100 µM.
Same read-out and setting: as for `Cc1noc(NC(=O)Nc2ccccc2F)c1C#N`, the figure is 4.42 µM.
Same read-out and setting: as for `C[C@@H]1CC[C@]2(C)C3(C)CC[C@]2(OC3=O)[C@@]12CC(c1ccoc1)OC2=O` (stereo not given in full), the figure is 45.5 µM.

A further test concerns NCI-H460 lung. In words: growth of human tumour cells (NCI), 48 h.
As for `COc1cc(OC)c(OC)cc1/C=C/c1nc2ccccc2s1`, the TGI was > 100 µM.
In the case of `Cc1noc(NC(=O)Nc2ccccc2F)c1C#N`, the TGI is > 34.2 µM.
Same read-out and setting: as for `C[C@@H]1CC[C@]2(C)C3(C)CC[C@]2(OC3=O)[C@@]12CC(c1ccoc1)OC2=O` (stereo not given in full), the figure is > 100 µM.

The next test deals with 786-0 renal. Kind of test: growth of human tumour cells (NCI), 48 h.
Consider `COc1cc(OC)c(OC)cc1/C=C/c1nc2ccccc2s1`, for which the TGI is > 100 µM.
The same measure, in the same setting: as for `Cc1noc(NC(=O)Nc2ccccc2F)c1C#N`, the figure is > 47.1 µM; as for `C[C@@H]1CC[C@]2(C)C3(C)CC[C@]2(OC3=O)[C@@]12CC(c1ccoc1)OC2=O` (stereo not given in full), 40.7 µM; as for `c1ccc(COC[C@H]2O[C@@H](c3ccccc3)C[C@@H](OCc3ccccc3)C2OCc2ccccc2)cc1` (stereo not given in full), > 10 µM.

In the next test the test system is K-562 leukemia. Kind of test: growth of human tumour cells (NCI), 48 h.
On to `Cc1noc(NC(=O)Nc2ccccc2F)c1C#N`, for which the TGI is > 100 µM.
On the same count and under the same terms, as for `C[C@@H]1CC[C@]2(C)C3(C)CC[C@]2(OC3=O)[C@@]12CC(c1ccoc1)OC2=O` (stereo not given in full), the figure is 76.3 µM.

A further test has as its system SNB-75 CNS. Kind of test: growth of human tumour cells (NCI), 48 h.
In the case of `COc1cc(OC)c(OC)cc1/C=C/c1nc2ccccc2s1`, the TGI is > 100 µM.
Consider `Cc1noc(NC(=O)Nc2ccccc2F)c1C#N`, for which the TGI is > 100 µM.
The same measure, in the same setting: as for `c1ccc(COC[C@H]2O[C@@H](c3ccccc3)C[C@@H](OCc3ccccc3)C2OCc2ccccc2)cc1` (stereo not given in full), the figure is > 10 µM.

In a further test the test system is SNB-19 CNS. In words: growth of human tumour cells (NCI), 48 h.
On to `COc1cc(OC)c(OC)cc1/C=C/c1nc2ccccc2s1`, for which the TGI is > 100 µM.
Same read-out and setting: as for `Cc1noc(NC(=O)Nc2ccccc2F)c1C#N`, the figure is > 50.3 µM; as for `C[C@@H]1CC[C@]2(C)C3(C)CC[C@]2(OC3=O)[C@@]12CC(c1ccoc1)OC2=O` (stereo not given in full), > 100 µM.

In the next test the test system is SF-295 CNS. Kind of test: growth of human tumour cells (NCI), 48 h.
As for `COc1cc(OC)c(OC)cc1/C=C/c1nc2ccccc2s1`, the TGI was > 100 µM.
Still for that read-out and setting: as for `Cc1noc(NC(=O)Nc2ccccc2F)c1C#N`, the figure is > 100 µM; as for `C[C@@H]1CC[C@]2(C)C3(C)CC[C@]2(OC3=O)[C@@]12CC(c1ccoc1)OC2=O` (stereo not given in full), > 100 µM.
The same measure, in the same setting: as for `c1ccc(COC[C@H]2O[C@@H](c3ccccc3)C[C@@H](OCc3ccccc3)C2OCc2ccccc2)cc1` (stereo not given in full), the figure is > 10 µM.

The test system of another test is COLO 205 colon. Kind of test: growth of human tumour cells (NCI), 48 h.
Consider `COc1cc(OC)c(OC)cc1/C=C/c1nc2ccccc2s1`, for which the TGI is > 100 µM.
Consider `Cc1noc(NC(=O)Nc2ccccc2F)c1C#N`, for which the TGI is > 100 µM.
Still for that read-out and setting: as for `C[C@@H]1CC[C@]2(C)C3(C)CC[C@]2(OC3=O)[C@@]12CC(c1ccoc1)OC2=O` (stereo not given in full), the figure is 41.4 µM; as for `c1ccc(COC[C@H]2O[C@@H](c3ccccc3)C[C@@H](OCc3ccccc3)C2OCc2ccccc2)cc1` (stereo not given in full), > 10 µM.

A further test relates to M14 melanoma. In words: growth of human tumour cells (NCI), 48 h.
In the case of `COc1cc(OC)c(OC)cc1/C=C/c1nc2ccccc2s1`, the TGI was > 100 µM.
The same measure, in the same setting: as for `Cc1noc(NC(=O)Nc2ccccc2F)c1C#N`, the figure is > 42.6 µM; as for `C[C@@H]1CC[C@]2(C)C3(C)CC[C@]2(OC3=O)[C@@]12CC(c1ccoc1)OC2=O` (stereo not given in full), 57.2 µM; as for `c1ccc(COC[C@H]2O[C@@H](c3ccccc3)C[C@@H](OCc3ccccc3)C2OCc2ccccc2)cc1` (stereo not given in full), > 10 µM.

Another test deals with SF-539 CNS. In words: growth of human tumour cells (NCI), 48 h.
For the compound `COc1cc(OC)c(OC)cc1/C=C/c1nc2ccccc2s1`, the TGI was > 100 µM.
Still for that read-out and setting: as for `Cc1noc(NC(=O)Nc2ccccc2F)c1C#N`, the figure is > 100 µM; as for `C[C@@H]1CC[C@]2(C)C3(C)CC[C@]2(OC3=O)[C@@]12CC(c1ccoc1)OC2=O` (stereo not given in full), 59.2 µM.

A further test has as its system T-47D breast. In words: growth of human tumour cells (NCI), 48 h.
Take `COc1cc(OC)c(OC)cc1/C=C/c1nc2ccccc2s1`: the TGI is > 100 µM.
Same read-out and setting: as for `Cc1noc(NC(=O)Nc2ccccc2F)c1C#N`, the figure is > 77.4 µM.
The same measure, in the same setting: as for `C[C@@H]1CC[C@]2(C)C3(C)CC[C@]2(OC3=O)[C@@]12CC(c1ccoc1)OC2=O` (stereo not given in full), the figure is > 100 µM; as for `c1ccc(COC[C@H]2O[C@@H](c3ccccc3)C[C@@H](OCc3ccccc3)C2OCc2ccccc2)cc1` (stereo not given in full), > 10 µM.

For the next test, the system named is NCI-H226 lung. In words: growth of human tumour cells (NCI), 48 h.
As for `COc1cc(OC)c(OC)cc1/C=C/c1nc2ccccc2s1`, the TGI is > 100 µM.
Consider `Cc1noc(NC(=O)Nc2ccccc2F)c1C#N`, for which the TGI is > 100 µM.
Regarding `C[C@@H]1CC[C@]2(C)C3(C)CC[C@]2(OC3=O)[C@@]12CC(c1ccoc1)OC2=O` (stereo not given in full), the TGI was > 100 µM.

For a further test, the system named is U251 CNS. In words: growth of human tumour cells (NCI), 48 h.
Regarding `COc1cc(OC)c(OC)cc1/C=C/c1nc2ccccc2s1`, the TGI was > 100 µM.
Turning to `Cc1noc(NC(=O)Nc2ccccc2F)c1C#N`, the TGI was > 44.6 µM.
Take `C[C@@H]1CC[C@]2(C)C3(C)CC[C@]2(OC3=O)[C@@]12CC(c1ccoc1)OC2=O` (stereo not given in full): the TGI is > 100 µM.

For a further test, the system named is HL-60(TB) leukemia. In words: growth of human tumour cells (NCI), 48 h.
Consider `COc1cc(OC)c(OC)cc1/C=C/c1nc2ccccc2s1`, for which the TGI is > 100 µM.
Same read-out and setting: as for `Cc1noc(NC(=O)Nc2ccccc2F)c1C#N`, the figure is > 100 µM; as for `C[C@@H]1CC[C@]2(C)C3(C)CC[C@]2(OC3=O)[C@@]12CC(c1ccoc1)OC2=O` (stereo not given in full), 44.3 µM.

The next test has as its system SF-268 CNS. Kind of test: growth of human tumour cells (NCI), 48 h.
With `COc1cc(OC)c(OC)cc1/C=C/c1nc2ccccc2s1`, the TGI was > 100 µM.
The same measure, in the same setting: as for `Cc1noc(NC(=O)Nc2ccccc2F)c1C#N`, the figure is > 48.9 µM; as for `C[C@@H]1CC[C@]2(C)C3(C)CC[C@]2(OC3=O)[C@@]12CC(c1ccoc1)OC2=O` (stereo not given in full), > 100 µM; as for `c1ccc(COC[C@H]2O[C@@H](c3ccccc3)C[C@@H](OCc3ccccc3)C2OCc2ccccc2)cc1` (stereo not given in full), > 10 µM.

(Values after PubChem BioAssay (NCI).)
